Test results reported in the supplement of paper PMC10307832.

Assays:
Assay in all cases: relative viability (nuclei count vs DMSO), 5 days (fraction); higher = more cells survive
Nelarabine + Pictilisib = compound: COc1nc(N)nc2c1ncn2[C@@H]1O[C@H](CO)[C@@H](O)[C@@H]1O [Nelarabine] + CS(=O)(=O)N1CCN(Cc2cc3nc(-c4cccc5[nH]ncc45)nc(N4CCOCC4)c3s2)CC1 [Pictilisib] (partner 1 µM)
Method in brief: (§1)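 Lung cancer cell lines were pin-tool dosed in 1536-well plates on the day after seeding, with either a lone drug or a fixed anchor-drug dose plus five library-drug doses (not always all listed) in √10 steps. Nuclei were counted on 4× images after 5 days. Relative viability is the ratio of treated-well to vehicle-well nuclei counts, with each value a median of duplicate plates.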

Adavosertib + Tozasertib = compound: C=CCn1c(=O)c2cnc(Nc3ccc(N4CCN(C)CC4)cc3)nc2n1-c1cccc(C(C)(C)O)n1 [Adavosertib] + Cc1cc(Nc2cc(N3CCN(C)CC3)nc(Sc3ccc(NC(=O)C4CC4)cc3)n2)n[nH]1 [Tozasertib] (partner 0.1 µM)
Method in brief: as §1

Adavosertib + Foretinib = compound: C=CCn1c(=O)c2cnc(Nc3ccc(N4CCN(C)CC4)cc3)nc2n1-c1cccc(C(C)(C)O)n1 [Adavosertib] + COc1cc2c(Oc3ccc(NC(=O)C4(C(=O)Nc5ccc(F)cc5)CC4)cc3F)ccnc2cc1OCCCN1CCOCC1 [Foretinib] (partner 0.25 µM)
Method in brief: as §1

Nelarabine + Palbociclib = compound: COc1nc(N)nc2c1ncn2[C@@H]1O[C@H](CO)[C@@H](O)[C@@H]1O [Nelarabine] + CC(=O)c1c(C)c2cnc(Nc3ccc(N4CCNCC4)cn3)nc2n(C2CCCC2)c1=O [Palbociclib] (partner 0.5 µM)
Method in brief: as §1

Question: EMC-BAC-2 was tested. Which relative viability (Nelarabine + Pictilisib; first compound 0.01 µM) did it give?
Answer: 0.548

Question: And the relative viability (Nelarabine + Pictilisib; first compound 0.03162 µM)?
Answer: 0.544

Question: And the relative viability (Nelarabine + Pictilisib; first compound 0.1 µM)?
Answer: 0.543

Question: And the relative viability (Nelarabine + Pictilisib; first compound 0.3162 µM)?
Answer: 0.558

Question: And the relative viability (Nelarabine + Pictilisib; first compound 1 µM)?
Answer: 0.542

Question: And the relative viability (Adavosertib + Tozasertib; first compound 0.01 µM)?
Answer: 0.331

Question: And the relative viability (Adavosertib + Tozasertib; first compound 0.03162 µM)?
Answer: 0.318

Question: And the relative viability (Adavosertib + Tozasertib; first compound 0.1 µM)?
Answer: 0.261

Question: And the relative viability (Adavosertib + Tozasertib; first compound 0.3162 µM)?
Answer: 0.28

Question: And the relative viability (Adavosertib + Foretinib; first compound 0.01 µM)?
Answer: 1.08

Question: What about the relative viability (Adavosertib + Foretinib; first compound 0.03162 µM) of the same cell line?
Answer: 1.01

Question: And the relative viability (Adavosertib + Foretinib; first compound 0.1 µM)?
Answer: 0.995

Question: What about the relative viability (Adavosertib + Foretinib; first compound 0.3162 µM) of the same cell line?
Answer: 0.949

Question: What about the relative viability (Nelarabine + Palbociclib; first compound 0.01 µM) of the same cell line?
Answer: 0.539

Question: And the relative viability (Nelarabine + Palbociclib; first compound 0.03162 µM)?
Answer: 0.514

Question: What about the relative viability (Nelarabine + Palbociclib; first compound 0.1 µM) of the same cell line?
Answer: 0.512

Question: What about the relative viability (Nelarabine + Palbociclib; first compound 0.3162 µM) of the same cell line?
Answer: 0.529

Question: What about the relative viability (Nelarabine + Palbociclib; first compound 1 µM) of the same cell line?
Answer: 0.514
